Experiments:
[1] = target: T1, canine CCR4 (Canis lupus familiaris, UniProt Q8MJW8); test: Chemotaxis assay with a membrane chamber, canine lymphocyte cell line CL-1 and canine recombinant CCL17; assay type: cell-based; settings: canine lymphocyte cell line CL-1; FIG. 8
T1 construct: Using a canine lymphocyte cell line (CL-1) expressing canine recombinant CCL17 and CCR4, a chemotaxis assay was carried out; endogenous in cells; host or cells: CL-1 canine lymphocyte cell line
T1 sequence (Q8MJW8 1-360): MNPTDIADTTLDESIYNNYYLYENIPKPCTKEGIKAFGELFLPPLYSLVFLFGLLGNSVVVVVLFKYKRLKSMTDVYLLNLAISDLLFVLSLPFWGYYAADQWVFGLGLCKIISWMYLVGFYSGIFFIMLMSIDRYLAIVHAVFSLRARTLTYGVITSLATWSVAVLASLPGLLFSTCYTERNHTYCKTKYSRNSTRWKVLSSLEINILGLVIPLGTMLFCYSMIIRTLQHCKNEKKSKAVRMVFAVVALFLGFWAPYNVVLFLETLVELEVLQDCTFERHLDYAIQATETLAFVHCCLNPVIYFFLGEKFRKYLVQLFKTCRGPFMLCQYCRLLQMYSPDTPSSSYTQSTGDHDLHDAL
Experimental: Thus, the cross-reactivity of these inhibitors with canine CCR4 was studied. Using a canine lymphocyte cell line (CL-1) expressing canine recombinant CCL17 and CCR4, a chemotaxis assay was carried out with a membrane chamber.

[2] = system: transitional cell carcinoma; test: Clinical test on dogs, antitumor effects; assay type: in vivo, dog; settings: 5/11 cases, 1 mg/kg intravenous every three weeks; FIG. 15
[3] = system: CCR4-positive T cells in blood; test: Single intravenous administration of anti-human CCR4 antibody to healthy dog; assay type: in vivo
Excerpt: Furthermore, the effects were sustained for 3 to 4 weeks. […] These side effects were improved 1 week after the administration, without any treatments.

[4] = system: canine transitional cell carcinoma; test: Clinical test of Mogamulizumab combined with Piroxicam versus Piroxicam alone
Experimental: To the control group, Piroxicam alone was administered (14 cases). The number of CCR4-positive Tregs in the peripheral blood and a tumor size were evaluated before and after the administration.
In the figure, the terms “PR,” “SD,” and “PD” indicate definitions regarding a change in the size of a tumor in the midcourse of a treatment according to RECIST (Response Evaluation Criteria in Solid Tumors), which are evaluation criteria regarding therapeutic effects on solid cancers. Specifically, PR (Partial Response) indicates a state in which a sum of the sizes of tumors has been reduced by 30% or more, SD (Stable Disease) indicates a state in which the size of a tumor has not changed, and PD (Progressive Disease) indicates a state in which a sum of the sizes of tumors has been increased by 20% or more and the size has been increased by 5 mm or more as an absolute value, or a state in which a new lesion has appeared.

[5] = system: CCR4-positive Tregs in the peripheral blood; test: Clinical test on dogs with various tumors, all 17 cases; assay type: in vivo, dog; settings: 1 mg/kg intravenous every three weeks
Excerpt: In the case of prostate cancer, 2/4 cases (50%) had partial response, and 2/4 cases (50%) were stable (FIG. 16). In the case of breast cancer, 1/2 cases (50%) had partial response, and 1/2 cases (50%) was stable (FIG. 17). […] However, all of the side effects were mild.

[6] = system: breast cancer; test: Clinical test on dogs, antitumor effects; assay type: in vivo, dog; settings: 1/2 cases, 1 mg/kg intravenous every three weeks; FIG. 17
[7] = system: prostate cancer; test: Clinical test on dogs, antitumor effects; assay type: in vivo, dog; settings: 2/4 cases, 1 mg/kg intravenous every three weeks; FIG. 16
[8] = system: canine transitional cell carcinoma cell line; test: Cancer-bearing mouse models, NOG mice transplanted with canine tumor cells; assay type: in vivo
Experimental: A comparison was made among the groups, in terms of the tumor volume of the transplanted transitional cell carcinoma cells. […] The tumor tissues were collected from each group at the end point, and the collected tumor tissues were subjected to a histopathologic examination involving H & E (Hematoxylin-Eosin) staining. […] In FIG. 11, the whitish portion in the black-and-white photograph indicates a focus of necrosis. […] Furthermore, intratumoral infiltration of Tregs was evaluated by performing immunohistochemistry on Foxp3. […] In FIG. 12, the portions seen as black points in the black-and-white photograph are sites in which Foxp3-positive Tregs are present.

COc1cc2nc(N3CCC(N4CCCCC4)CC3)nc(NC3CCCCCC3)c2cc1OC.Cl.Cl [C-021, 2-[1,4′-bipiperidin]-1′-yl-N-cycloheptyl-6,7-dimethoxy-4-quinazolinamine dihydrochloride]
migration of CL-1 by the recombinant CCL17 [1]: significantly suppressed

Mogamulizumab: anti-human CCR4 antibody (Kyowa Kirin Co., Ltd.), a neutralizing antibody
cases with partial response [2]: 45.5%
migration of CL-1 by the recombinant CCL17 [1]: significantly suppressed
side effects ([3]; 1 mg/kg intravenous): nausea, a slight increase in ALP, and a slight increase in CRP
time after administration at which side effects improved without any treatments ([3]; 1 mg/kg intravenous): 1 week
number of CCR4-positive T cells in blood ([3]; 1 mg/kg intravenous, flow cytometry, FIG. 9): reduced by half
side effects ([3]; 0.01 to 0.1 mg/kg intravenous): no side effects were found
number of CCR4-positive Tregs in the peripheral blood ([4]; after Mogamulizumab 1 mg/kg IV every three weeks plus Piroxicam 0.3 mg/kg PO daily, FIG. 18, 19): reduced
response percentage according to RECIST ([4]; combined use group with Mogamulizumab versus single administration group of Piroxicam, FIG. 22, 23): higher response percentage
progression-free survival periods (PFS) ([4]; combined use group with Mogamulizumab versus single administration group of Piroxicam, FIG. 24): better improvement
overall survival periods (OS) ([4]; combined use group with Mogamulizumab versus single administration group of Piroxicam, FIG. 25): better improvement
tumor (mass) size / tumor volume ([4]; combined use group with Mogamulizumab, FIG. 20, 21): reduced
side effect: facial edema and/or redness, cases ([5]; 1/17 cases): 5.9%
side effect: slight increase in ALP, cases ([5]; 3/17 cases): 17.6%
side effect: vomiting, cases ([5]; 3/17 cases): 17.6%
severity of all of the side effects ([5]; 17 cases): mild
number of CCR4-positive Tregs in peripheral blood ([5]; all cases, FIG. 14): drastically reduced
cases with partial response [6]: 50%
cases with partial response [7]: 50%
intratumoral infiltration of Tregs (Foxp3 immunohistochemistry) ([8]; combined use group of canine PBMC and Mogamulizumab versus canine PBMC group, FIG. 12, 13): significantly suppressed
focus of necrosis in tumor tissue (H & E staining) ([8]; combined use group of canine PBMC and Mogamulizumab, compared with other groups, FIG. 11): an expansion of the focus of necrosis was observed
growth of the tumor (tumor volume) ([8]; combined use group of canine PBMC and Mogamulizumab, FIG. 10): significantly suppressed
